Data published in patent US20170210723A1, “MOLECULES HAVING PESTICIDAL UTILITY, AND INTERMEDIATES, COMPOSITIONS, AND PROCESSES, RELATED THERETO” (priority 2016, published 2017).

What was measured:
Format in all cases: in vivo
[1] = test system: Yellow Fever Mosquito (Aedes aegypti); assay: Bioassays on Yellow Fever Mosquito larvae, 96-well plate; conditions: from 4000 ppm DMSO master plate, about 1 day-old larvae, 3 days
Method in brief: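 Aedes aegypti larvae about 1 day old, in water with liver powder, exposed in 96-well plates to compounds from a 4000 ppm DMSO master solution diluted in 90:10 water:acetone. Plates covered and held at room temperature for 3 days, then each well scored for mortality; 6 replicate plates.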

[2] = test system: Green Peach Aphid (Myzus persicae); assay: Bioassays on Green Peach Aphid, foliar spray on cabbage seedlings; conditions: 72 h, 200 ppm spray on cabbage seedlings, three days, Abbott corrected % control, read-out: GPA % Control (or Mortality) rating
Experimental: Cabbage seedlings grown in 3-inch pots, with 2-3 small (3-5 cm) true leaves, were used as test substrate. The seedlings were infested with 20-50 GPA (wingless adult and nymph stages) one day prior to chemical application. Four pots with individual seedlings were used for each treatment. Test molecules (2 mg) were dissolved in 2 mL of acetone/methanol (1:1) solvent, forming stock solutions of 1000 ppm test molecule. The stock solutions were diluted 5× with 0.025% Tween 20 in water to obtain the solution at 200 ppm test molecule. A hand-held aspirator-type sprayer was used for spraying a solution to both sides of […] leaves until runoff. Reference plants (solvent check) were sprayed with the diluent only containing 20% by volume of acetone/methanol (1:1) solvent. Treated plants were held in a holding room for three days at approximately 25° C. and ambient relative humidity (RH) prior to grading. Evaluation was conducted by counting the number of live aphids per plant under a microscope. Percent Control was measured by using Abbott's correction formula (W. S. Abbott, “A Method of Computing the Effectiveness of an Insecticide” J. Econ. Entomol. 18 (1925), pp. 265-267) as follows.
Corrected % Control=100*(X−Y)/X • where • X=No. of live aphids on solvent check plants and • Y=No. of live aphids on treated plants

[3] = test system: Beet Armyworm (Spodoptera exigua); assay: Bioassays on BAW, 128-well diet tray assay; conditions: Spodoptera exigua; for mortality at 50 µg/cm2: 168 h, 50 μg/cm^2 on artificial diet, second instar larvae, five to seven days, read-out: BAW % Control (or Mortality) rating
[4] = test system: Cabbage Looper (Trichoplusia ni); assay: Bioassays on CL, 128-well diet tray assay; conditions: Trichoplusia ni; for mortality at 50 µg/cm2: 168 h, 50 μg/cm^2 on artificial diet, second instar larvae, five to seven days, read-out: CL % Control (or Mortality) rating
Method in brief: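 Test molecule at 50 μg/cm^2 applied to the artificial diet surface (acetone-water) and dried; one to five second-instar T. ni larvae per well, eight wells per treatment, held at 25° C., 14:10 light-dark for five to seven days. Percent mortality averaged over wells.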

SMILES: C[C@H](CSCC(F)(F)F)NC(=O)c1ccc(/C=C/C(c2cc(Cl)c(Cl)c(Cl)c2)C(F)(F)F)cc1C(F)(F)F (stereo partly drawn) [F22, 4-((E)-4,4,4-trifluoro-3-(3,4,5-trichlorophenyl)but-1-en-1-yl)-N—((R)-1-((2,2,2-trifluoroethyl)thio)propan-2-yl)-2-(trifluoromethyl)benzamide]
- YFM % Control (or Mortality) rating [1]: A (80-100)
- mortality at 200 ppm [2]: 80 to 100%
- mortality at 50 µg/cm2 [3]: 50 to 100%
- mortality at 50 µg/cm2 [4]: 50 to 100%

SMILES: CS(=O)(=O)CC[C@@H](NC(=O)c1ccc(/C=C/C(c2cc(Cl)c(Cl)c(Cl)c2)C(F)(F)F)cc1Br)C(=O)NCC(F)(F)F (stereo partly drawn) [F25, 2-bromo-N—((R)-4-(methylsulfonyl)-1-oxo-1-((2,2,2-trifluoroethyl)amino)butan-2-yl)-4-((E)-4,4,4-trifluoro-3-(3,4,5-trichlorophenyl)but-1-en-1-yl)benzamide]
- YFM % Control (or Mortality) rating [1]: A (80-100)
- mortality at 200 ppm [2]: 0 to 80%
- mortality at 50 µg/cm2 [3]: 50 to 100%
- mortality at 50 µg/cm2 [4]: 50 to 100%

SMILES: CS(=O)(=O)CC[C@@H](NC(=O)c1ccc(/C=C/C(c2cc(Cl)c(Cl)c(Cl)c2)C(F)(F)F)cc1C(F)(F)F)C(=O)NCC(F)(F)F (stereo partly drawn) [F26, N—((R)-4-(Methylsulfonyl)-1-oxo-1-((2,2,2-trifluoroethyl)amino)butan-2-yl)-4-((E)-4,4,4-trifluoro-3-(3,4,5-trichlorophenyl)but-1-en-1-yl)-2-(trifluoromethyl)benzamide]
- YFM % Control (or Mortality) rating [1]: B (More than 0-Less than 80)
- mortality at 200 ppm [2]: 0 to 80%
- mortality at 50 µg/cm2 [3]: 50 to 100%
- mortality at 50 µg/cm2 [4]: 50 to 100%

SMILES: C[C@H](CSCC(F)(F)F)NC(=O)c1ccc(/C=C/C(c2cc(Cl)c(F)c(Cl)c2)C(F)(F)F)cc1C(F)(F)F (stereo partly drawn) [F35, 4-((E)-3-(3,5-Dichloro-4-fluorophenyl)-4,4,4-trifluorobut-1-en-1-yl)-N—((R)-1-((2,2,2-trifluoroethyl)thio)propan-2-yl)-2-(trifluoromethyl)benzamide]
- YFM % Control (or Mortality) rating [1]: A (80-100)
- mortality at 200 ppm [2]: 0 to 80%
- mortality at 50 µg/cm2 [3]: 50 to 100%
- mortality at 50 µg/cm2 [4]: 50 to 100%

SMILES: C[C@H](CSCC(F)(F)F)NC(=O)c1ccc(/C=C/C(c2cc(Cl)c(Cl)c(Cl)c2)C(F)(F)F)cc1Br (stereo partly drawn) [F38, 2-Bromo-4-((E)-4,4,4-trifluoro-3-(3,4,5-trichlorophenyl)but-1-en-1-yl)-N-((R)-1-((2,2,2-trifluoroethyl)thio)propan-2-yl)benzamide]
- YFM % Control (or Mortality) rating [1]: A (80-100)
- mortality at 200 ppm [2]: 0 to 80%
- mortality at 50 µg/cm2 [3]: 50 to 100%
- mortality at 50 µg/cm2 [4]: 50 to 100%

SMILES: C[C@H](C[S+]([O-])CC(F)(F)F)NC(=O)c1ccc(/C=C/C(c2cc(Cl)c(F)c(Cl)c2)C(F)(F)F)cc1Br (stereo partly drawn) [F49, 2-Bromo-4-((E)-3-(3,5-dichloro-4-fluorophenyl)-4,4,4-trifluorobut-1-en-1-yl)-N-((2R)-1-((2,2,2-trifluoroethyl)sulfinyl)propan-2-yl)benzamide]
- YFM % Control (or Mortality) rating [1]: A (80-100)
- mortality at 200 ppm [2]: 0%
- mortality at 50 µg/cm2 [3]: 50 to 100%
- mortality at 50 µg/cm2 [4]: 50 to 100%

SMILES: C[C@H](CSCC(F)(F)F)NC(=O)c1ccc(/C=C/C(c2cc(Br)cc(Br)c2)C(F)(F)F)cc1C(F)(F)F (stereo partly drawn) [F56, 4-((E)-3-(3,5-Dibromophenyl)-4,4,4-trifluorobut-1-en-1-yl)-N—((R)-1-((2,2,2-trifluoroethyl)thio)propan-2-yl)-2-(trifluoromethyl)benzamide]
- YFM % Control (or Mortality) rating [1]: A (80-100)
- mortality at 200 ppm [2]: 0%
- mortality at 50 µg/cm2 [3]: 50 to 100%
- mortality at 50 µg/cm2 [4]: 50 to 100%

SMILES: C[C@H](CS(=O)(=O)CC(F)(F)F)NC(=O)c1ccc(/C=C/C(c2cc(Cl)c(Cl)c(Cl)c2)C(F)(F)F)cc1Cl (stereo partly drawn) [F58, 2-Chloro-4-((E)-4,4,4-trifluoro-3-(3,4,5-trichlorophenyl)but-1-en-1-yl)-N—((R)-1-((2,2,2-trifluoroethyl)sulfonyl)propan-2-yl)benzamide]
- YFM % Control (or Mortality) rating [1]: A (80-100)
- mortality at 200 ppm [2]: 0%
- mortality at 50 µg/cm2 [3]: 50 to 100%
- mortality at 0.05 µg/cm2 ([3]; 0.05 μg/cm^2, read-out: BAW Percent control (or mortality)): 100%
- mortality at 0.5 µg/cm2 ([3]; 0.5 μg/cm^2, read-out: BAW Percent control (or mortality)): 100%
- mortality at 5 µg/cm2 ([3]; 5 μg/cm^2, read-out: BAW Percent control (or mortality)): 100%
- mortality at 50 µg/cm2 [4]: 50 to 100%
- mortality at 0.05 µg/cm2 ([4]; 0.05 μg/cm^2, read-out: CL Percent control (or mortality)): 100%
- mortality at 0.5 µg/cm2 ([4]; 0.5 μg/cm^2, read-out: CL Percent control (or mortality)): 100%
- mortality at 5 µg/cm2 ([4]; 5 μg/cm^2, read-out: CL Percent control (or mortality)): 100%

SMILES: C[C@H](CS(=O)(=O)CC(F)(F)F)NC(=O)c1ccc(/C=C/C(c2cc(Br)c(Cl)c(Br)c2)C(F)(F)F)cc1C(F)(F)F (stereo partly drawn) [F59, 4-((E)-3-(3,5-Dibromo-4-chlorophenyl)-4,4,4-trifluorobut-1-en-1-yl)-N—((R)-1-((2,2,2-trifluoroethyl)sulfonyl)propan-2-yl)-2-(trifluoromethyl)benzamide]
- mortality at 200 ppm [2]: 0%
- mortality at 50 µg/cm2 [3]: 50 to 100%
- mortality at 50 µg/cm2 [4]: 50 to 100%

SMILES: CCSC(CNC(=O)c1ccc(/C=C/C(c2cc(Cl)c(Cl)c(Cl)c2)C(F)(F)F)cc1C(F)(F)F)SCC (centres unmarked) [F113, (E)-N-(2,2-Bis(ethylthio)ethyl)-4-(4,4,4-trifluoro-3-(3,4,5-trichlorophenyl)but-1-en-1-yl)-2-(trifluoromethyl)benzamide]
- YFM % Control (or Mortality) rating [1]: A (80-100)
- mortality at 50 µg/cm2 [3]: 50 to 100%
- mortality at 50 µg/cm2 [4]: 50 to 100%

SMILES: C[C@H](CS(=O)(=O)CC(F)(F)F)NC(=O)c1ccc(/C=C/C(c2cc(Cl)c(Cl)c(Cl)c2)C(F)F)cc1C(F)(F)F (stereo partly drawn) [F118, 4-((E)-4,4-Difluoro-3-(3,4,5-trichlorophenyl)but-1-en-1-yl)-N—((R)-1-((2,2,2-trifluoroethyl)sulfonyl)propan-2-yl)-2-(trifluoromethyl)benzamide]
- YFM % Control (or Mortality) rating [1]: A (80-100)
- mortality at 50 µg/cm2 [3]: 50 to 100%
- mortality at 50 µg/cm2 [4]: 50 to 100%

SMILES: NC(=O)[C@H](CSCC(F)(F)F)NC(=O)c1ccc(/C=C/C(c2cc(Cl)c(Cl)c(Cl)c2)C(F)(F)F)cc1C(F)(F)F (stereo partly drawn) [F125, N—((R)-1-Amino-1-oxo-3-((2,2,2-trifluoroethyl)thio)propan-2-yl)-4-((E)-4,4,4-trifluoro-3-(3,4,5-trichlorophenyl)but-1-en-1-yl)-2-(trifluoromethyl)benzamide]
- YFM % Control (or Mortality) rating [1]: A (80-100)
- mortality at 50 µg/cm2 [3]: 50 to 100%
- mortality at 50 µg/cm2 [4]: 50 to 100%

SMILES: CC(F)(F)C(/C=C/c1ccc(C(=O)NCCS(=O)(=O)CC(F)(F)F)c(C(F)(F)F)c1)c1cc(Cl)c(Cl)c(Cl)c1 (centres unmarked) [F126, (E)-4-(4,4-Difluoro-3-(3,4,5-trichlorophenyl)pent-1-en-1-yl)-N-(2-((2,2,2-trifluoroethyl)sulfonyl)ethyl)-2-(trifluoromethyl)benzamide]
- YFM % Control (or Mortality) rating [1]: B (More than 0-Less than 80)
- mortality at 50 µg/cm2 [3]: 50 to 100%
- mortality at 50 µg/cm2 [4]: 50 to 100%

SMILES: C[C@H](CS(=O)(=O)CC(F)(F)F)NC(=O)c1ccc(/C=C/C(c2cc(Cl)c(F)c(Cl)c2)C(C)(F)F)cc1C(F)(F)F (stereo partly drawn) [F131, 4-((E)-3-(3,5-Dichloro-4-fluorophenyl)-4,4-difluoropent-1-en-1-yl)-N—((R)-1-((2,2,2-trifluoroethyl)sulfonyl)propan-2-yl)-2-(trifluoromethyl)benzamide]
- YFM % Control (or Mortality) rating [1]: D (No activity noticed in this bioassay)
- mortality at 50 µg/cm2 [3]: 50 to 100%
- mortality at 50 µg/cm2 [4]: 50 to 100%

SMILES: C[C@H](CS(=O)(=O)CC(F)(F)F)NC(=O)c1ccc(/C=C/C(c2cc(Cl)cc(Cl)c2)C(C)(F)F)cc1Cl (stereo partly drawn) [F132, 2-Chloro-4-((E)-3-(3,5-dichlorophenyl)-4,4-difluoropent-1-en-1-yl)-N—((R)-1-((2,2,2-trifluoroethyl)sulfonyl)propan-2-yl)benzamide]
- YFM % Control (or Mortality) rating [1]: B (More than 0-Less than 80)
- mortality at 50 µg/cm2 [3]: 50 to 100%
- mortality at 50 µg/cm2 [4]: 50 to 100%

SMILES: C[C@H](CS(=O)(=O)CC(F)(F)F)NC(=O)c1ccc(/C=C/C(c2cc(Cl)cc(Cl)c2)C(C)(F)F)cc1C(F)(F)F (stereo partly drawn) [F134, 4-((E)-3-(3,5-Dichlorophenyl)-4,4-difluoropent-1-en-1-yl)-N—((R)-1-((2,2,2-trifluoroethyl)sulfonyl)propan-2-yl)-2-(trifluoromethyl)benzamide]
- YFM % Control (or Mortality) rating [1]: A (80-100)
- mortality at 50 µg/cm2 [3]: 50 to 100%
- mortality at 50 µg/cm2 [4]: 50 to 100%
